This note sets out measurements from PubChem BioAssay AID192 (DTP/NCI, 2004).

The assay has as its system BDF1 mice, B16 melanoma ip, median survival T/C. Put plainly: NCI In Vivo Anticancer Drug Screen. Data for tumor model B16 Melanoma (intraperitoneal) in B6D2F1 (BDF1) mice. The following applies: endpoint: median survival time, higher = longer survival. The procedure, abridged: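 Vehicle-treated animals serve as the reference (C); treated animals (T) are scored for survival or tumor size after tumor transplantation.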

Where [1] appears, read: dose: 6.25 mg/kg/injection, schedule: Q01DX009 (ip), vehicle: Klucel (hydroxypropylcellulose) (HPC).
Where [2] appears, read: dose: 12.5 mg/kg/injection, schedule: Q01DX009 (ip), vehicle: Klucel (hydroxypropylcellulose) (HPC).
Where [3] appears, read: dose: 25.0 mg/kg/injection, schedule: Q01DX009 (ip), vehicle: Klucel (hydroxypropylcellulose) (HPC).
Where [4] appears, read: dose: 50.0 mg/kg/injection, schedule: Q01DX009 (ip), vehicle: Klucel (hydroxypropylcellulose) (HPC).
Where [5] appears, read: dose: 12.5 mg/kg/injection, schedule: Q01DX009 (ip), vehicle: saline with Tween-80.
Where [6] appears, read: dose: 25.0 mg/kg/injection, schedule: Q01DX009 (ip), vehicle: saline with Tween-80.
[7] abbreviates: dose: 50.0 mg/kg/injection, schedule: Q01DX009 (ip), vehicle: saline with Tween-80.
The mark [8] stands for this setting: dose: 6.25 mg/kg/injection, schedule: Q01DX009 (ip), vehicle: saline with Tween-80.
The mark [9] stands for this setting: dose: 1.56 mg/kg/injection, schedule: Q01DX009 (ip), vehicle: Klucel (hydroxypropylcellulose) (HPC).
The mark [10] stands for this setting: dose: 3.12 mg/kg/injection, schedule: Q01DX009 (ip), vehicle: saline with Tween-80.
Setting [11] is: dose: 100.0 mg/kg/injection, schedule: Q01DX009 (ip), vehicle: saline with Tween-80.
Where [12] appears, read: dose: 100.0 mg/kg/injection, schedule: Q04DX003 (ip), vehicle: Klucel (hydroxypropylcellulose) (HPC).
Where [13] appears, read: dose: 100.0 mg/kg/injection, schedule: Q01DX009 (ip), vehicle: Klucel (hydroxypropylcellulose) (HPC).
The mark [14] stands for this setting: dose: 400.0 mg/kg/injection, schedule: Q01DX009 (ip), vehicle: Klucel (hydroxypropylcellulose) (HPC).

Several values for one entry are separate records, joined by “and”; a condition that tells them apart may be missing. Identical values can stand only once. Toxic doses and inconclusive results are not listed.

As for `CC(=O)OC1C(CO)OC2C1Oc1nc(=N)c(F)cn12` (configuration not stated), the T/C is 88 % of control (dose: 3.13 mg/kg/injection, schedule: Q01DX009 (ip), vehicle: saline); 93 % of control (dose: 6.25 mg/kg/injection, schedule: Q01DX009 (ip), vehicle: saline); 90 % of control (dose: 12.5 mg/kg/injection, schedule: Q01DX009 (ip), vehicle: saline); 86 % of control (dose: 25.0 mg/kg/injection, schedule: Q01DX009 (ip), vehicle: saline); 91 % of control (dose: 50.0 mg/kg/injection, schedule: Q01DX009 (ip), vehicle: saline).

For `CC(C)C(=O)NNCc1ccccc1`, the T/C under setting [1] was 95 % of control, the T/C under setting [2] was 97 % of control, the T/C under setting [3] is 95 % of control and the T/C under setting [4] was 90 % of control.

In the case of `O=C(O)C1CCCCC1C(=O)Nc1cccc(C(F)(F)F)c1` (configuration not stated), the T/C was 114 % of control under setting [2], 119 % of control under setting [3] and 113 % of control under setting [4].

Take `CC(C)(C)OC(=O)N1CCCC1C(=O)N1CCCC1C(=O)Oc1ccccc1` (configuration not stated): the T/C is, setting by setting: (dose: 100.0 mg/kg/injection, schedule: Q01DX009 (ip), vehicle: saline) 121 % of control; (dose: 200.0 mg/kg/injection, schedule: Q01DX009 (ip), vehicle: saline) 110 % of control; (dose: 400.0 mg/kg/injection, schedule: Q01DX009 (ip), vehicle: saline) 114 % of control.

Regarding `CCOC(=O)c1c(N)[nH]c(SSc2[nH]c(N)c(C(=O)OCC)c2C(=O)OCC)c1C(=O)OCC`, the T/C runs as follows: (dose: 75.0 mg/kg/injection, schedule: Q01DX009 (ip), vehicle: saline) 89 % of control; (dose: 300.0 mg/kg/injection, schedule: Q01DX009 (ip), vehicle: saline) 97 % of control.

As for `Cc1c(Cl)cccc1NC(=O)NCCC(C)C`, the T/C under setting [5] is 103 % of control, the T/C under setting [6] was 100 % of control and the T/C under setting [7] is 96 % of control.

Regarding `C[CH2][Pb]([CH2]C)([CH2]C)[O]C(=O)COc1ccccc1`, the T/C was 104 % of control (dose: 1.5 mg/kg/injection, schedule: Q01DX009 (ip), vehicle: saline with Tween-80); 107 % of control (dose: 3.0 mg/kg/injection, schedule: Q01DX009 (ip), vehicle: saline with Tween-80); 108 % of control under setting [8].

With `CC(=N\O)/C(C)=N/O.CC(=N\O)/C(C)=N/O.CC(=N\O)/C(C)=N/O.CC(=N\O)/C(C)=N/O.[Cu].[Cu]`, the T/C (dose: 0.78 mg/kg/injection, schedule: Q01DX009 (ip), vehicle: Klucel (hydroxypropylcellulose) (HPC)) is 93 % of control; the T/C under setting [9] is 103 % of control; the T/C (dose: 3.13 mg/kg/injection, schedule: Q01DX009 (ip), vehicle: Klucel (hydroxypropylcellulose) (HPC)) was 103 % of control.

For `CC[PH+](CC)CC[S-].CC[PH+](CC)CC[S-].[Au+].[Au+]`, the T/C is 109 % of control (dose: 2.5 mg/kg/injection, schedule: Q01DX009 (ip), vehicle: Klucel (hydroxypropylcellulose) (HPC)); 112 % of control (dose: 5.0 mg/kg/injection, schedule: Q01DX009 (ip), vehicle: Klucel (hydroxypropylcellulose) (HPC)); 118 % of control (dose: 10.0 mg/kg/injection, schedule: Q01DX009 (ip), vehicle: Klucel (hydroxypropylcellulose) (HPC)); 112 % of control (dose: 20.0 mg/kg/injection, schedule: Q01DX009 (ip), vehicle: Klucel (hydroxypropylcellulose) (HPC)); 110 % of control (dose: 40.0 mg/kg/injection, schedule: Q01DX009 (ip), vehicle: Klucel (hydroxypropylcellulose) (HPC)).

Turning to `CCc1ccc2c(c1)N(CCCN(CCCl)CCCl)c1ccccc1S2`, the T/C runs as follows: (dose: 1.56 mg/kg/injection, schedule: Q01DX009 (ip), vehicle: saline with Tween-80) 114 % of control; (dose: 1.56 mg/kg/injection, schedule: Q04DX003 (ip), vehicle: saline with Tween-80) 87 % of control; under setting [10], 92 % of control and 123 % of control; (dose: 3.12 mg/kg/injection, schedule: Q04DX003 (ip), vehicle: saline with Tween-80) 110 % of control; under setting [8], 111 % of control and 117 % of control; (dose: 6.25 mg/kg/injection, schedule: Q04DX003 (ip), vehicle: saline with Tween-80) 105 % of control. In addition, the T/C (dose: 12.5 mg/kg/injection, schedule: Q04DX003 (ip), vehicle: saline with Tween-80) is 112 % of control and the T/C (dose: 25.0 mg/kg/injection, schedule: Q04DX003 (ip), vehicle: saline with Tween-80) was 115 % of control.

Take `O=C(O)CC[P+](c1ccccc1)(c1ccccc1)c1ccccc1`: the T/C is 101 % of control (dose: 100.0 mg/kg/injection, schedule: Q04DX003 (ip), vehicle: saline); 116 % of control (dose: 200.0 mg/kg/injection, schedule: Q04DX003 (ip), vehicle: saline); 116 % of control (dose: 400.0 mg/kg/injection, schedule: Q04DX003 (ip), vehicle: saline).

With `CCN(CC)CCC(=O)c1ccccc1`, the T/C under setting [10] is 114 % of control; the T/C under setting [8] was 108 % of control; the T/C under setting [5] is 117 % of control; the T/C under setting [6] was 107 % of control; the T/C under setting [7] is 108 % of control; the T/C under setting [11] is 107 % of control.

For `COc1ccc(S(=O)O)cc1NC(C)=O`, the T/C under setting [12] is 95 % of control.

With `O=C(CC(=O)CC(O)(C(F)(F)F)C(F)(F)F)CC(O)(C(F)(F)F)C(F)(F)F`, the T/C reads like this: (dose: 0.05 mg/kg/injection, schedule: Q01DX009 (ip), vehicle: saline) 93 % of control; (dose: 0.1 mg/kg/injection, schedule: Q01DX009 (ip), vehicle: saline) 95 % of control; (dose: 0.2 mg/kg/injection, schedule: Q01DX009 (ip), vehicle: saline) 95 % of control; (dose: 0.63 mg/kg/injection, schedule: Q04DX003 (ip), vehicle: saline) 116 % of control; (dose: 1.25 mg/kg/injection, schedule: Q04DX003 (ip), vehicle: saline) 111 % of control; (dose: 2.5 mg/kg/injection, schedule: Q04DX003 (ip), vehicle: saline) 105 % of control. For the same compound, the T/C (dose: 125.0 micrograms/kg/injection, schedule: Q01DX009 (ip), vehicle: saline with Tween-80) is 97 % of control.

`O=C1NC(=O)c2cccc3cccc1c23`: the T/C (dose: 100.0 mg/kg/injection, schedule: Q04DX003 (ip), vehicle: saline with Tween-80) was 94 % of control.

On to `O=NO.O=N[O-].O=N[O-].[Co+3].[NH2-].[NH2-].[NH2-].[NH2-]`, for which the T/C is 88 % of control under setting [1]; 91 % of control under setting [2]; 92 % of control and 101 % of control under setting [3].

With `CN(C1=NS(=O)(=O)N=C(N(C)c2ccccc2)O1)c1ccccc1`, the T/C is, setting by setting: under setting [3], 101 % of control; under setting [4], 108 % of control; under setting [13], 96 % of control; (dose: 200.0 mg/kg/injection, schedule: Q01DX009 (ip), vehicle: Klucel (hydroxypropylcellulose) (HPC)) 93 % of control; under setting [14], 87 % of control.

On to `Cc1cnc2c(=O)[nH]c(=O)[nH]c2n1`, for which the T/C under setting [13] is 90 % of control and the T/C under setting [14] was 93 % of control.

Take `COc1ccc(C2CCC(=O)CC2C(=O)O)cc1` (configuration not stated): the T/C was 94 % of control under setting [12] and 100 % of control (dose: 400.0 mg/kg/injection, schedule: Q04DX003 (ip), vehicle: Klucel (hydroxypropylcellulose) (HPC)).

As for `S=C=NCCCCCCCCCCCCN=C=S`, the T/C was 99 % of control under setting [10], 86 % of control under setting [8] and 98 % of control under setting [5].

Take `O=C(Oc1ccc(Cl)cc1Cl)c1ccc([N+](=O)[O-])cc1`: the T/C under setting [3] was 87 % of control and the T/C under setting [13] was 86 % of control.

Regarding `CCCCOc1ccc(OCCCCCCCCCC[N+](C)(C)C)cc1`, the T/C under setting [9] is 98 % of control; the T/C (dose: 3.12 mg/kg/injection, schedule: Q01DX009 (ip), vehicle: Klucel (hydroxypropylcellulose) (HPC)) was 96 % of control; the T/C under setting [1] is 96 % of control; the T/C under setting [2] was 93 % of control.

Consider `CS(=O)(=O)OCC(O)C(O)COS(C)(=O)=O` (configuration not stated), for which the T/C under setting [7] was 100 % of control; the T/C under setting [11] is 102 % of control; the T/C (dose: 200.0 mg/kg/injection, schedule: Q01DX009 (ip), vehicle: saline with Tween-80) is 103 % of control and 114 % of control; the T/C (dose: 800.0 mg/kg/injection, schedule: Q01DX009 (ip), vehicle: saline with Tween-80) was 153 % of control.
